The target of the assay is GTPase KRas [G12D] (Homo sapiens, UniProt P01116, G12D). The assay is described as follows: KRAS Binding Assay. As for the experimental part: The ability of a test compound to bind to KRASG12D was measured by using an HTRF KRASG12D GTP Binding Kit (Cisbio, 63ADK000CB27PEG). […] 5 μL of compound solution was added to each well after serial dilution, followed by addition of 5 μL of GDP (50 nM) solution. After 30 minutes incubation at room temperature, 1×6His Eu cryptate antibody solution and GTP-Red tracer were added to the plate, then incubated for another 30 minutes. The HTRF signal was measured with a VICTOR Nivo multimode plate reader according to the manufacturer's instructions.
Sequence of GTPase KRas [G12D] (P01116 whole entry G12D): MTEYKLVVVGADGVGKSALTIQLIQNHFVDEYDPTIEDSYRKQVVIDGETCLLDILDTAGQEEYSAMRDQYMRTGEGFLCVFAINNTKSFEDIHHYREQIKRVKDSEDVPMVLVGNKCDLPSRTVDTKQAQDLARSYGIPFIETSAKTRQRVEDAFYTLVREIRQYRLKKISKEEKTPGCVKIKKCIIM
Consider `CCc1c(F)ccc2cc(OC(=O)N(C)C)cc(-c3ncc4c(N5CCC[C@]6(CCO6)C5)nc(OCC5(CN(C)C)CC5)nc4c3F)c12` [US20240239813, Compound 24a], for which the IC50 is more than 1000 nM.

On to `CN(C)CC1(COc2nc(N3CCC[C@]4(CCO4)C3)c3cnc(-c4cc(N)ccc4-c4cccs4)c(F)c3n2)CC1` [US20240239813, Compound 17a], for which the IC50 was more than 1000 nM. With `CCc1c(F)ccc2cc(OC(=O)C(C)C)cc(-c3ncc4c(N5CCC[C@]6(CCO6)C5)nc(OCC5(CN(C)C)CC5)nc4c3F)c12` [US20240239813, Compound 22a], the IC50 is more than 1000 nM. The value for `CCc1c(F)ccc2cc(O)cc(-c3ncc4c(N5[C@@H]6CC[C@H]5C[C@@H](O)C6)nc(OC[C@@]56CCCN5C[C@H](F)C6)nc4c3F)c12` [US20240239813, Compound 10] was 881 nM; that for `Oc1cc(-c2ncc3c(N4CCCC5(CCO5)C4)nc(OC[C@@]45CCCN4C[C@H](F)C5)nc3c2F)c2ccccc2c1` (some centres undefined) [US20240239813, Compound 8a] was more than 1000 nM. As for `CCc1c(F)ccc2cc(O)cc(-c3ncc4c(N5C[C@H](O)[C@@H](O)[C@H](O)[C@H]5CO)nc(OC[C@@]56CCCN5C[C@H](F)C6)nc4c3F)c12` [US20240239813, Compound 51], the figure is more than 1000 nM. As to `CCc1c(F)ccc2cc(O)cc(-c3ncc4c(N5CCC(O)(CO)CC5)nc(OC[C@@]56CCCN5C[C@H](F)C6)nc4c3F)c12` [US20240239813, Compound 41], the IC50 is more than 1000 nM. Regarding `CCc1c(F)ccc2cc(O)cc(-c3ncc4c(N5[C@@H]6CC[C@H]5C[C@H](O)C6)nc(OC[C@@]56CCCN5C[C@H](F)C6)nc4c3F)c12` [US20240239813, Compound 11], the IC50 was more than 1000 nM. As for `Cc1ccc2[nH]ncc2c1-c1ncc2c(N3CCCC4(CCO4)C3)nc(OC[C@@]34CCCN3C[C@H](F)C4)nc2c1F` (some centres undefined) [US20240239813, Compound 71], the IC50 is more than 1000 nM.
